The target of one assay is T1, SIRT5 (Homo sapiens (Human), UniProt Q9NXA8). As to the kind of experiment: SIRT5 IC50 (Table I). The format is biochemical.
T1 sequence (Q9NXA8 37-310): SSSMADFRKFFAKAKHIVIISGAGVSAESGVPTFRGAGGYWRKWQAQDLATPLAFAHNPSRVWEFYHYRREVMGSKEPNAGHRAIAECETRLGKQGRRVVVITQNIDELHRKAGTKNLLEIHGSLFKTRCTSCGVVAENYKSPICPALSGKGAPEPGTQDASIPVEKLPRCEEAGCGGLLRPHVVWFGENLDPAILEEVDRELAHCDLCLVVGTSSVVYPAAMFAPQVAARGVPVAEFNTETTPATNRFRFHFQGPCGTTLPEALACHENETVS
In general, IC50 refers to the concentration that inhibits the measured activity by half. Lower therefore signals greater potency. In the case of `CC(=O)Nc1ccc(-c2csc(Nc3ccc(C(=O)O)c(O)c3)n2)cc1` [Compound 1-1, 4-((4-(4-acetamidophenyl)thiazol-2-yl)amino)-2-hydroxybenzoic acid], inhibition was half-maximal at 26.4 ± 0.83 µM (IC50).
Same read-out and setting: for `CC(=O)Nc1ccc(-c2csc(NC(=S)Nc3ccc(C(=O)O)c(O)c3)n2)cc1` [Compound 1-5, 4-(3-(4-(4-acetamidophenyl)thiazol-2-yl)thioureido)-2-hydroxybenzoic acid] the value was 12.4 ± 0.58 µM.
On the same count and under the same terms, the result for `CC(=O)Nc1ccc(-c2csc(NC(=S)Nc3ccc(C(=O)O)cc3)n2)cc1` [Compound 1-7, 4-(3-(4-(4-acetamidophenyl)thiazol-2-yl)thioureido)benzoic acid] reads 101 ± 8.48 µM; that for `CC(=O)Nc1ccc(-c2csc(NC(=S)Nc3ccc(O)c(C(=O)O)c3)n2)cc1` [Compound 1-8, 5-(3-(4-(4-acetamidophenyl)thiazol-2-yl)thioureido)-2-hydroxybenzoic acid], 55.9 ± 5.42 µM.
In the case of `CC(=O)Nc1ccc(-c2csc(NC(=S)Nc3ccc(C(=O)O)cc3O)n2)cc1` [Compound 1-9, 4-(3-(4-(4-acetamidophenyl)thiazol-2-yl)thioureido)-3-hydroxybenzoic acid], the midpoint of inhibition, the IC50, lay at 50.7 ± 5.64 µM.
The same measure, in the same setting: for `Cc1ccc(-c2csc(NC(=S)Nc3ccc(C(=O)O)c(O)c3)n2)cc1` [Compound 1-10, 2-hydroxy-4-(3-(4-(p-tolyl)thiazol-2-yl)thioureido)benzoic acid] the value was 23.4 ± 0.92 µM; for `Cc1cccc(-c2csc(NC(=S)Nc3ccc(C(=O)O)c(O)c3)n2)c1` [Compound 1-11, 2-hydroxy-4-(3-(4-(m-tolyl)thiazol-2-yl)thioureido)benzoic acid], 27.7 ± 1.02 µM; for `Cc1ccccc1-c1csc(NC(=S)Nc2ccc(C(=O)O)c(O)c2)n1` [Compound 1-12, 2-hydroxy-4-(3-(4-(o-tolyl)thiazol-2-yl)thioureido)benzoic acid], 34 ± 2.18 µM.
`O=C(O)c1ccc(NC(=S)Nc2nc(-c3ccc(F)cc3)cs2)cc1O` [Compound 1-13, 4-(3-(4-(4-fluorophenyl)thiazol-2-yl)thioureido)-2-hydroxybenzoic acid] yielded an IC50 of 17.3 ± 0.28 µM.
`O=C(O)c1ccc(NC(=S)Nc2nc(-c3cccc(F)c3)cs2)cc1O` [Compound 1-14, 4-(3-(4-(3-fluorophenyl)thiazol-2-yl)thioureido)-2-hydroxybenzoic acid]: the 50% inhibitory concentration (IC50) stood at 18.3 ± 0.95 µM.
The same measure, in the same setting: for `O=C(O)c1ccc(NC(=S)Nc2nc(-c3ccccc3F)cs2)cc1O` [Compound 1-15, 4-(3-(4-(2-fluorophenyl)thiazol-2-yl)thioureido)-2-hydroxybenzoic acid] the value was 26.2 ± 2.54 µM.
In the case of `O=C(O)c1ccc(NC(=S)Nc2nc(-c3ccc(C(F)(F)F)cc3)cs2)cc1O` [Compound 1-16, 2-hydroxy-4-(3-(4-(4-(trifluoromethyl)phenyl)thiazol-2-yl)thioureido)benzoic acid], the 50% inhibitory concentration (IC50) was determined as 26.8 ± 1.42 µM.
The same measure, in the same setting: the result for `O=C(O)c1ccc(NC(=S)Nc2nc(-c3cccc(C(F)(F)F)c3)cs2)cc1O` [Compound 1-17, 2-hydroxy-4-(3-(4-(3-(trifluoromethyl)phenyl)thiazol-2-yl)thioureido)benzoic acid] reads 24.3 ± 2.54 µM; that for `COc1ccc(-c2csc(NC(=S)Nc3ccc(C(=O)O)c(O)c3)n2)cc1` [Compound 1-18, 2-hydroxy-4-(3-(4-(4-methoxyphenyl)thiazol-2-yl)thioureido)benzoic acid], 29.2 ± 2.88 µM; that for `COc1cccc(-c2csc(NC(=S)Nc3ccc(C(=O)O)c(O)c3)n2)c1` [Compound 1-19, 2-hydroxy-4-(3-(4-(3-methoxyphenyl)thiazol-2-yl)thioureido)benzoic acid], 41.6 ± 3.79 µM.
Same read-out and setting: the result for `O=C(O)c1ccc(NC(=S)Nc2nc(-c3ccc(O)cc3)cs2)cc1O` [Compound 1-20, 2-hydroxy-4-(3-(4-(4-hydroxyphenyl)thiazol-2-yl)thioureido)benzoic acid] reads 42.5 ± 3.83 µM; that for `O=C(O)c1ccc(NC(=S)Nc2nc(-c3cccc(O)c3)cs2)cc1O` [Compound 1-21, 2-hydroxy-4-(3-(4-(3-hydroxyphenyl)thiazol-2-yl)thioureido)benzoic acid], 32.8 ± 3.87 µM.
For the compound `N#Cc1ccc(-c2csc(NC(=S)Nc3ccc(C(=O)O)c(O)c3)n2)cc1` [Compound 1-22, 4-(3-(4-(4-cyanophenyl)thiazol-2-yl)thioureido)-2-hydroxybenzoic acid], the half-maximal inhibitory concentration (IC50) was 11.4 ± 0.5 µM.
Same read-out and setting: for `O=C(O)c1ccc(NC(=S)Nc2nc(-c3ccc([N+](=O)[O-])cc3)cs2)cc1O` [Compound 1-23, 2-hydroxy-4-(3-(4-(4-nitrophenyl)thiazol-2-yl)thioureido)benzoic acid] the value was 4.3 ± 0.3 µM.
The same measure, in the same setting: the result for `CC(=O)Nc1cccc(-c2csc(NC(=S)Nc3ccc(C(=O)O)c(O)c3)n2)c1` [Compound 1-24, 4-(3-(4-(3-acetamidophenyl)thiazol-2-yl)thioureido)-2-hydroxybenzoic acid] reads 35.6 ± 1.3 µM.
As to `CC(=O)Nc1ccccc1-c1csc(NC(=S)Nc2ccc(C(=O)O)c(O)c2)n1` [Compound 1-25, 4-(3-(4-(2-acetamidophenyl)thiazol-2-yl)thioureido)-2-hydroxybenzoic acid], inhibition was half-maximal at 55.6 ± 5.49 µM (IC50).
On the same count and under the same terms, for `O=C(O)c1ccc(NC(=S)Nc2nc(-c3ccc(Br)cc3)cs2)cc1O` [Compound 1-26, 4-(3-(4-(4-bromophenyl)thiazol-2-yl)thioureido)-2-hydroxybenzoic acid] the value was 18.6 ± 0.23 µM; for `O=C(O)c1ccc(NC(=S)Nc2nc(-c3ccc(Cl)cc3)cs2)cc1O` [Compound 1-27, 4-(3-(4-(4-chlorophenyl)thiazol-2-yl)thioureido)-2-hydroxybenzoic acid], 18.4 ± 0.28 µM; for `CNS(=O)(=O)c1ccc(-c2csc(NC(=S)Nc3ccc(C(=O)O)c(O)c3)n2)cc1` [Compound 1-28, 2-hydroxy-4-(3-(4-(4-(N-methylsulfamoyl)phenyl)thiazol-2-yl)thioureido)benzoic acid], 38.8 ± 3.13 µM.
The same measure, in the same setting: for `CNS(=O)(=O)c1cccc(-c2csc(NC(=S)Nc3ccc(C(=O)O)c(O)c3)n2)c1` [Compound 1-29, 2-hydroxy-4-(3-(4-(3-(N-methylsulfamoyl)phenyl)thiazol-2-yl)thioureido)benzoic acid] the value was 26.1 ± 1.91 µM; for `O=C(O)c1ccc(NC(=S)Nc2nc(-c3ccc(F)c(F)c3)cs2)cc1O` [Compound 1-30, 4-(3-(4-(3,4-difluorophenyl)thiazol-2-yl)thioureido)-2-hydroxybenzoic acid], 16.1 ± 0.73 µM; for `O=C(O)c1ccc(NC(=S)Nc2nc(-c3ccc(F)cc3F)cs2)cc1O` [Compound 1-31, 4-(3-(4-(2,4-difluorophenyl)thiazol-2-yl)thioureido)-2-hydroxybenzoic acid], 19.3 ± 0.93 µM.
On the same count and under the same terms, for `N#Cc1ccc(-c2csc(NC(=S)Nc3ccc(C(=O)O)c(O)c3)n2)cc1F` [Compound 1-32, 4-(3-(4-(4-cyano-3-fluorophenyl)thiazol-2-yl)thioureido)-2-hydroxybenzoic acid] the value was 12.8 ± 0.48 µM; for `N#Cc1ccc(-c2csc(NC(=S)Nc3ccc(C(=O)O)c(O)c3)n2)c(F)c1` [Compound 1-33, 4-(3-(4-(4-cyano-2-fluorophenyl)thiazol-2-yl)thioureido)-2-hydroxybenzoic acid], 14.8 ± 0.81 µM.
`O=C(O)c1ccc(NC(=S)Nc2nc(-c3ccc([N+](=O)[O-])cc3F)cs2)cc1O` [Compound 1-34, 4-(3-(4-(2-fluoro-4-nitrophenyl)thiazol-2-yl)thioureido)-2-hydroxybenzoic acid]: it took 23.8 ± 2.71 µM to reach half-maximal inhibition (IC50).
The same measure, in the same setting: for `O=C(O)c1ccc(NC(=S)Nc2nc(-c3ccc([N+](=O)[O-])c(F)c3)cs2)cc1O` [Compound 1-35, 4-(3-(4-(3-fluoro-4-nitrophenyl)thiazol-2-yl)thioureido)-2-hydroxybenzoic acid] the value was 14.9 ± 1.35 µM; for `O=C(O)c1ccc(NC(=S)Nc2nc(-c3ccc(F)c([N+](=O)[O-])c3)cs2)cc1O` [Compound 1-36, 4-(3-(4-(4-fluoro-3-nitrophenyl)thiazol-2-yl)thioureido)-2-hydroxybenzoic acid], 11.6 ± 0.74 µM.
On the same count and under the same terms, for `O=C(O)c1ccc(NC(=S)Nc2nc(-c3ccc(F)c(S(=O)(=O)NC4CCCC4)c3)cs2)cc1O` [Compound 1-37, 4-(3-(4-(3-(N-cyclopentylsulfamoyl)-4-fluorophenyl)thiazol-2-yl)thioureido)-2-hydroxybenzoic acid] the value was 24.9 ± 0.54 µM.
`O=C(O)c1ccc(NC(=S)Nc2nc(-c3ccc(F)c(S(=O)(=O)NCc4ccccc4)c3)cs2)cc1O` [Compound 1-38, 4-(3-(4-(3-(N-benzylsulfamoyl)-4-fluorophenyl)thiazol-2-yl)thioureido)-2-hydroxybenzoic acid] gave an IC50 of 8.22 ± 1.3 µM.
On the same count and under the same terms, the result for `O=C(O)c1ccc(NC(=S)Nc2nc(-c3ccc([N+](=O)[O-])c(S(=O)(=O)NCc4ccccc4)c3)cs2)cc1O` [Compound 1-39, 4-(3-(4-(3-(N-benzylsulfamoyl)-4-nitrophenyl)thiazol-2-yl)thioureido)-2-hydroxybenzoic acid] reads 2.5 ± 0.21 µM.

For a further assay, the system named is Ewing sarcoma cell line A4573. As to the kind of experiment: Growth inhibition of Ewing sarcoma cell line A4573. The format is cell-based.
`CCOC(=O)c1ccc(Nc2nc(-c3ccc(NC(C)=O)cc3)cs2)cc1O` [Compound 1-2, Ethyl 4-((4-(4-acetamidophenyl)thiazol-2-yl)amino)-2-hydroxybenzoate]: the “growth of Ewing sarcoma cells” value was “inhibited growth”.
Still for that read-out and setting: the result for `CCOC(=O)c1ccc(Nc2nc(-c3ccc(NC(=O)CCCCNC(=O)COc4cccc5c4C(=O)N(C4CCC(=O)NC4=O)C5=O)cc3)cs2)cc1O` (stereo not shown) [Compound 1-3, ethyl 4-((4-(4-(5-(2-((2-(2,6-dioxopiperidin-3-yl)-1,3-dioxoisoindolin-4-yl)oxy)acetamido)pentanamido)phenyl)thiazol-2-yl)amino)-2-hydroxybenzoate] reads “inhibited growth”.

The test system of another assay is Ewing sarcoma cell line A673. Nature of the assay: Growth inhibition of Ewing sarcoma cell line A673. It counts as cell-based.
Take `CCOC(=O)c1ccc(Nc2nc(-c3ccc(NC(C)=O)cc3)cs2)cc1O` [Compound 1-2, Ethyl 4-((4-(4-acetamidophenyl)thiazol-2-yl)amino)-2-hydroxybenzoate]: the “growth of Ewing sarcoma cells” value is on record as “inhibited growth”.
`CCOC(=O)c1ccc(Nc2nc(-c3ccc(NC(=O)CCCCNC(=O)COc4cccc5c4C(=O)N(C4CCC(=O)NC4=O)C5=O)cc3)cs2)cc1O` (stereo not shown) [Compound 1-3, ethyl 4-((4-(4-(5-(2-((2-(2,6-dioxopiperidin-3-yl)-1,3-dioxoisoindolin-4-yl)oxy)acetamido)pentanamido)phenyl)thiazol-2-yl)amino)-2-hydroxybenzoate]: the “growth of Ewing sarcoma cells” value is on record as “inhibited growth”.

For the next assay, the target named is T1, SIRT5. As to the kind of experiment: Degradation of SIRT5 protein. It counts as cell-based.
Take `CCOC(=O)c1ccc(Nc2nc(-c3ccc(NC(=O)CCCCNC(=O)COc4cccc5c4C(=O)N(C4CCC(=O)NC4=O)C5=O)cc3)cs2)cc1O` (stereo not shown) [Compound 1-3, ethyl 4-((4-(4-(5-(2-((2-(2,6-dioxopiperidin-3-yl)-1,3-dioxoisoindolin-4-yl)oxy)acetamido)pentanamido)phenyl)thiazol-2-yl)amino)-2-hydroxybenzoate]: the “degradation of protein SIRT5” value is “degraded”.

For the origin of these results see patent publication US20250276953A1, “SMALL MOLECULE SIRTUIN INHIBITORS AND USES THEREOF” (The Regents of the University of Michigan, priority 2022, published 2025).
